Source: patent publication US11884708B2, “Stapled peptide inhibitors of nemo as potential anti-inflammatory and anti-cancer drugs” (INSTITUT PASTEUR, priority 2015, dated 2024)
pKd: −log10 of the molar value. Like-named read-outs stand apart in the source and are kept apart here. Where a SMILES comes first, the peptide text is derived from it. Bridges are numbered along the chain shown (N, C = ends). [ ]: non-standard residue; d: D form. The star is where a group is joined. BODIPYFLEthylmaleimide = Cc1cc(C)n2c1C=C1C=CC(CCC(=O)NCCN3C(=O)CC(*)C3=O)=[N+]1[B-]2(F)F; Succinimide(1-Et,3-yl) = CCN1C(=O)CC(*)C1=O; S5 = C=CCCC[C@](C)(N)C(=O)O

Key:
circular dichroism = conditions: 10 mM sodium phosphate; pH 7; 1 °C; 50 uM
[1] = test system: OCI-Ly3 (ABC-DLBCL, MALT1 dependent); experiment: Cell death assay (CellTiter-Blue resazurin); type: cell-based, human; conditions: OCI-Ly3, 48 h
Experimental: The CellTiter-Blue® Cell Viability kit assay purchased from Promega was used to assess the cell death induced by NEMO stapled peptides in ABC- and GCB-DLBCL cell lines. […] Cells were considered 100% death when the fluorescence intensity value was the same as the one with the medium alone or with the cells treated with the cycloheximide protein synthesis inhibitor at 25 μM (Sigma Aldrich).
For each time point measurement 100 μl of cell samples were withdrawn at different incubation times (7 h, 24 h and 48 h) and subjected to resazurin assay for one hour at 37° C. in the CO2 incubator by adding and mixing for 10 sec 20 μl of resazurin. Fluorescence measurements were performed with a TECAN infinite F500 instrument at 560 nm excitation wavelength and 590 nm emission wavelength. Viability of cells at time 0 was determined just before adding compound and all experiments were performed in duplicate.
The percentage of cell death was calculated according to the following formula: (1−((RFUobs−blank)/(RFU100% viability−blank))*100), where RFUobs corresponds to the cells viability observed in the presence of compound, RFU100% viability, the initial cells viability and blank the background fluorescence measured using the medium alone.
The EC50 value was calculated by plotting the percentage of cell death as function of the compound concentration and fitting the experimental curve with the following formula: (A*P0)/(EC50+P0), where A is the amplitude of fluorescence, P0 is the peptide concentration.
To compare the inhibition efficiency of BA-UBI-SAHND306-Q313 with IKK inhibitors (MLN120B, MedChem Express) or IKKα/β inhibitor (TPCA1, R&D systems), 25,000 DLBCL cells (OCI-Ly3) were incubated for 7 h with an increasing concentration of IKK inhibitors ranging from 0 to 50 μM, and the amount of cell death was then determined using CellTiter-Blue® Cell Viability kit assay. For the MI-2 MALT1 inhibitor (Fontan et al., 2012, Cancer cell 22, 812-824), similar experiments were carried out in MALT dependent (OCI-Ly3) and independent (HLY1) DLBCL cells using a 0-25 μM range.

CC2-LZ domain of NEMO = CC2-LZ domain of NEMO (Mus musculus, UniProt O88522); experiment: Fluorescence anisotropy/polarization binding assay
Experimental: Measurements were performed on a Tecan infinite F500 equipped with polarizing filters and using excitation and emission wavelengths at 485 nm and 535 nm, respectively. Anisotropy data were calculated using the Magellan software version 6.5. Prior experiments, the mouse CC2-LZ was extensively dialyzed in binding buffer containing 20 mM HEPES pH 7.4, 100 mM NaCl, and 0.05% P20 detergent (v/v). All experiments were performed in a 384 well plate (vol 25 μl) at room temperature. The BODIPY®-labeled peptide concentrations were fixed at 0.1 or 10 μM whereas the CC2-LZ concentration varied from 0 to 100 μM. Reference calibrated at 22 mP, was based on the fluorescence of the peptide alone. Each experimental binding curve was determined from at least 10 independent concentration points. The G-factor was calculated as previously described in Agou et al. [7], with a value of 0.75, which was observed constant within 5% upon all titrations. For analysis, the blank value corresponding to the value of buffer alone, was subtracted from all titration data.
All NEMO peptides were conjugated to an extra N-terminal cysteine with the fluorophore BODIPY® or FITC to determine their binding affinity for the CC2-LZ domain of NEMO (also called NOA or UBAN) by fluorescence polarization. For each peptide titration, various concentration of the target ranging from 0 to 100 μM and a fixed concentration of peptide at 0.1 or 10 μM were used at 25° C. […] For these reasons, all further titration experiments were performed with a fixed peptide concentration of 0.1 μM unless otherwise indicated.

NF-κB pathway = NF-κB pathway (Mus musculus, UniProt O88522); experiment: NF-κB inhibition assay, LPS-stimulated 70Z3-C3 lacZ reporter cells; type: cell-based; conditions: for IC 50 NF-κB inhibition: 70Z3-C3 cells, 2 h peptide then LPS 4 h, N.I = No inhibition observed
Description: The stable cell line of pre-B lymphocyte 70Z3-C3 cells expressing the lacZ reporter gene under the control of NF-κB was previously described. OCI-Ly3 (ABC-DLBCL, MALT1 dependent) and OCI-Ly7 (GCB-DLBCL). U2932 (ABC-DLBCL, MALT1 independent) were purchased from DSMZ (Deutsche Sammlung von Mikroorganismen and Zellkulturen) and HLY1 (ABC-DLBCL, MALT1 independent). Jurkat T-cells were obtained after transduction of lentiviruses containing a NF-κB reporter luciferase gene as previously described. All cell lines were grown in RPMI 1640 medium supplemented with 10% FBS, 10 μg/ml of streptomycin, 10 U/ml of penicillin and kept at 37° C., in a 5% CO2 humidified incubator. 0.05 mM of β-mercaptoethanol was added for 70Z3-C3. Primary and secondary antibodies were as following: polyclonal rabbit anti NF-κB p65, (sc-372, Santa Cruz Biotechnology, Inc) Alexa-488 coupled goat anti-rabbit IgG1 (Invitrogen) NF-κB inhibition assay was almost similar to those previously described in [1], except that luminescence data were monitored with a Centro XS^3, LB960 luminometer (Berthold technologies.), which is more sensitive. All experiments were performed in duplicates in 96-well plates. […] After 4 h incubation, cells were centrifuged 7 min at 400×g, at 4° C.

70Z3-C3 cells = experiment: Cellular uptake of BODIPY-labeled peptides by FACS; type: cell-based; conditions: 10 μM labeled peptide, 2 h, 37° C.
Experimental: 2.2×10^5 cells in 100 μl of 70Z3-C3 were incubated with either 10 μM or with various doses of 10 μM, 5 μM and 1 μM of labeled-peptides at 37° C., 5% CO2. Similarly to fluorescence microscopy experiments, cells alone or incubated with BODIPY®-labeled BSA (ref) or BODIPY®-UBI devoid of the antennapedia cell penetrating sequence were used as negative control, whereas cells with BA-UBI [1] at 10 μM were used as positive control. After 2 h incubation, cells were washed 4 times with PBS at room temperature, and finally diluted 1:3 in PBS before subjected to FACS analysis. Along with the BODIPY® fluorophore the fluorescence intensity was recorded at 525±25 nm using the Gallios Flow cytometer (Beckman Coulter) to analyse each cells sample. Each internalization peptide was assessed by gating a population of 15,000 events and the data were analysed using Kaluza software version 1.2.
For determination of cellular uptake by flow cytometry, the BA-UBI-SAHND306-Q313 stapled peptide was first incubated with 2.2×10^5 70Z3-C3 cells in […] either at 4° C. or 37° C. for 2 h. Bodipy-labeled BSA, bodipy alone and bodipy-UBI were used as negative controls to verify the washing quality and efficient removal of any non-specific binding at the cell surface before FACS analysis. […] After 2 h of incubation, cells were washed four times with PBS at room temperature and diluted at 1:3 in PBS for FACS analysis. Samples were analyzed as previously described in the European patent (No: 15307137.8).

[2] = Temperature-induced denaturation followed by CD; type: physicochemical; conditions: 30 μM or 300 μM, ΔCp ≈ 0; for Tm: thermal denaturation by CD; for ΔH: van't Hoff enthalpy change at Tm
[3] = CD spectroscopy, α-helical content; type: physicochemical; conditions: 50 μM peptide, phosphate buffer pH 7.0, UBI in TFE taken as 100%
[4] = fixed peptide concentration 10 μM

Chain of NF-κB pathway (O88522 whole entry): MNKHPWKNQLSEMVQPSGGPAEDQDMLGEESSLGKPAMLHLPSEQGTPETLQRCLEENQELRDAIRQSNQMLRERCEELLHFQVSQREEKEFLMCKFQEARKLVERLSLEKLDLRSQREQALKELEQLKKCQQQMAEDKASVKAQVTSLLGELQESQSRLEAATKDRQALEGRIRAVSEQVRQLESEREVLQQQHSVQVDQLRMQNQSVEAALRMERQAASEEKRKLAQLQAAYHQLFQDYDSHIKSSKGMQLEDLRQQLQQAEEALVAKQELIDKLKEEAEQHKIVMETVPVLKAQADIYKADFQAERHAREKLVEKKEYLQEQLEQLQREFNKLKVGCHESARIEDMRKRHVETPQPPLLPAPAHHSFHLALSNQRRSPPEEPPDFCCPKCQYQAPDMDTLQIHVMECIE
Chain of CC2-LZ domain of NEMO (O88522 242-343 limits assumed): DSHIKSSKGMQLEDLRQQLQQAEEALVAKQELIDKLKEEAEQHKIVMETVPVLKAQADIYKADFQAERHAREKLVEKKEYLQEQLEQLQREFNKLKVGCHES

IC 50 NF-κB inhibition (NF-κB pathway) | Binding affinity (FP) at 10 μM (CC2-LZ domain of NEMO; [4]) | ΔS [2] | Tm [2] | ΔH [2] | α-helical content at 1° C. [3] | SMILES | helicity (circular dichroism) | FACS peak median, first or only peak (70Z3-C3 cells) | further results
– | – | – | – | – | – | CC[C@H](C)[C@H](NC(=O)[C@H](CC(=O)O)NC(=O)[C@H](C)NC(=O)[C@H](CCC(N)=O)NC(=O)[C@H](C)NC(=O)[C@H](CCCCN)NC(=O)[C@H](CC(C)C)NC(=O)[C@H](CSC1CC(=O)N(CC)C1=O)NC(C)=O)C(=O)N[C@@H](Cc1ccc(O)cc1)C(=O)N[C@@H](CCCCN)C(=O)N[C@@H](C)C(=O)N[C@@H](CCCNC(=N)N)C(=O)N[C@@H](Cc1ccccc1)C(=O)N[C@@H](CCC(N)=O)C(=O)N[C@@H](C)C(=O)N[C@@H](CCC(=O)O)C(=O)N[C@@H](CCCNC(=N)N)C(=O)N[C@@H](Cc1c[nH]cn1)C(=O)N[C@@H](C)C(=O)N[C@@H](CCCNC(=N)N)C(=O)N[C@@H](CCC(=O)O)C(=O)N[C@@H](CCCCN)C(N)=O (some centres unmarked) (Ac-C(Succinimide(1-Et,3-yl))LKAQADIYKARFQAERHAREK-NH2) | 42 rel % | – | –
– | – | – | – | – | – | CC[C@H](C)[C@H](NC(=O)[C@H](CC(=O)O)NC(=O)[C@H](C)NC(=O)[C@H](CCC(N)=O)NC(=O)[C@H](C)NC(=O)[C@H](CCCCN)NC(=O)[C@H](CC(C)C)NC(=O)[C@H](CSC1CC(=O)N(CC)C1=O)NC(C)=O)C(=O)N[C@@H](Cc1ccc(O)cc1)C(=O)N[C@@H](CCCCN)C(=O)N[C@@]1(C)CCCC=CCCC[C@@](C)(C(=O)N[C@@H](CCC(=O)O)C(=O)N[C@@H](CCCNC(=N)N)C(=O)N[C@@H](Cc2c[nH]cn2)C(=O)N[C@@H](C)C(=O)N[C@@H](CCCNC(=N)N)C(=O)N[C@@H](CCC(=O)O)C(=O)N[C@@H](CCCCN)C(N)=O)NC(=O)[C@H](CCC(N)=O)NC(=O)[C@H](Cc2ccccc2)NC(=O)[C@H](CCCNC(=N)N)NC1=O (some centres unmarked) (Ac-C(Succinimide(1-Et,3-yl))LKAQADIYK[S5]RFQ[S5]ERHAREK-NH2; staple 11-15) | 65 rel % | – | –
N.I* | – | – | – | – | – | CC(=O)N[C@@H](CSC1CC(=O)N(CCNC(=O)CCC2=[N+]3C(=Cc4c(C)cc(C)n4[B-]3(F)F)C=C2)C1=O)C(=O)N[C@@H](CCC(=O)O)C(=O)N[C@@H](CC(C)C)C(=O)N[C@@H](C)C(=O)N[C@@H](CCC(N)=O)C(=O)N[C@@H](CC(C)C)C(=O)N[C@@H](CCC(N)=O)C(=O)N[C@@H](C)C(=O)N[C@@H](CCC(=O)O)C(=O)N[C@@H](CC(C)C)C(=O)N[C@@H](CC(=O)O)C(=O)N[C@]1(C)CCCCCCC=CCCC[C@@](C)(C(=O)N[C@@H](CC(=O)O)C(=O)N[C@@H](CCCCN)C(=O)N[C@@H](CCC(N)=O)C(=O)N[C@@H](CCC(=O)O)C(=O)N[C@@H](CC(C)C)C(=O)N[C@@H](CCCNC(=N)N)C(=O)N[C@@H](CCCCN)C(=O)N[C@@H](CC(C)C)C(N)=O)NC(=O)[C@H](CCC(N)=O)NC(=O)[C@H](C(C)C)NC(=O)[C@H](C(C)C)NC(=O)[C@H](C)NC(=O)[C@H](CCC(N)=O)NC(=O)[C@H](C(C)C)NC1=O (single isomer, unassigned) [Co-SAHN I307-A314, ELAQLQAELDXVQAVVQXDKQELRKL, reference compound] | – | – | cell death [1]: no effect of cell death; binding to CC2-LZ, in words (CC2-LZ domain of NEMO): does not interact; pKd (CC2-LZ domain of NEMO; fixed peptide concentration 10 μM, read-out: Binding affinity (FP) at 10 μM): < 2.00; NF-κB inhibition activity, in words (NF-κB pathway; LPS-induced NF-κB activation): does not inhibit
N.I* | Very weak | −24 cal. mol^−1.K^−1 | 19 ± 0.3 C° | -6900 cal/mol | 70% | CC(=O)N[C@@H](CSC1CC(=O)N(CCNC(=O)CCC2=[N+]3C(=Cc4c(C)cc(C)n4[B-]3(F)F)C=C2)C1=O)C(=O)N[C@@H](CC(C)C)C(=O)N[C@@H](CCCCN)C(=O)N[C@@]1(C)CCCC=CCCC[C@@](C)(C(=O)N[C@@H](Cc2ccc(O)cc2)C(=O)N[C@@H](CCCCN)C(=O)N[C@@H](C)C(=O)N[C@@H](CCCNC(=N)N)C(=O)N[C@@H](Cc2ccccc2)C(=O)N[C@@H](CCC(N)=O)C(=O)N[C@@H](C)C(=O)N[C@@H](CCC(=O)O)C(=O)N[C@@H](CCCNC(=N)N)C(=O)N[C@@H](Cc2c[nH]cn2)C(=O)N[C@@H](C)C(=O)N[C@@H](CCCNC(=N)N)C(=O)N[C@@H](CCC(=O)O)C(=O)N[C@@H](CCCCN)C(N)=O)NC(=O)[C@H](CC(=O)O)NC(=O)[C@H](C)NC(=O)[C@H](CCC(N)=O)NC1=O (some centres unmarked) [UBI-SAHN A303-I307] (Ac-C(BODIPYFLEthylmaleimide)LK[S5]QAD[S5]YKARFQAERHAREK-NH2; staple 4-8) | – | 10 | pKd (CC2-LZ domain of NEMO; fixed peptide concentration 0.1 μM, read-out: Binding affinity (FP) at 0.1 μM): ~3.44
N.I* | Not detectable | −20 cal. mol^−1.K^−1 | 20 ± 0.3 C° | -5790 cal/mol | 65% | CC[C@H](C)[C@@H]1NC(=O)[C@@](C)(NC(=O)[C@H](C)NC(=O)[C@H](CCC(N)=O)NC(=O)[C@H](C)NC(=O)[C@H](CCCCN)NC(=O)[C@H](CC(C)C)NC(=O)[C@H](CSC2CC(=O)N(CCNC(=O)CCC3=[N+]4C(=Cc5c(C)cc(C)n5[B-]4(F)F)C=C3)C2=O)NC(C)=O)CCCC=CCCC[C@@](C)(C(=O)N[C@@H](CCCNC(=N)N)C(=O)N[C@@H](Cc2ccccc2)C(=O)N[C@@H](CCC(N)=O)C(=O)N[C@@H](C)C(=O)N[C@@H](CCC(=O)O)C(=O)N[C@@H](CCCNC(=N)N)C(=O)N[C@@H](Cc2c[nH]cn2)C(=O)N[C@@H](C)C(=O)N[C@@H](CCCNC(=N)N)C(=O)N[C@@H](CCC(=O)O)C(=O)N[C@@H](CCCCN)C(N)=O)NC(=O)[C@H](CCCCN)NC(=O)[C@H](Cc2ccc(O)cc2)NC1=O (some centres unmarked) [UBI-SAHN D306-A310] (Ac-C(BODIPYFLEthylmaleimide)LKAQA[S5]IYK[S5]RFQAERHAREK-NH2; staple 7-11) | – | 1 | FACS peak median, second peak (70Z3-C3 cells): 35
